According to the supplement of paper PMC11208160:

Assay: recombinant UMI read abundance after kanamycin selection (control-corrected) (log10(CPM+1)); higher = more efficient recombination; extreme values may be limits of the assay; sequences stand for … in AGTGCAGAGAAAATCGGCCAGTTTTCTCTGCCTGCAGTCCGCATGCCGTGGGACCCCTTGGGTTCTAACCTGTTGCCTAGATTTATGCAGCGGACTGCCTTTCTCCCAAAGTGATAAACCGG…AGGTTGGTTTCACT; site = the 11-nt donor
Procedure, shortened: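 For the IS621 bridge recombinase, a pooled Escherichia coli screen tested donor and donor-binding-loop pairs. Cells received the pair library together with a target plasmid encoding a fixed target and T7-inducible recombinase, then went onto IPTG (0.07 mM) plus kanamycin or unselected plates in duplicate. After PCR across the donor–target junction and sequencing, recombinant UMI counts were normalized to CPM, averaged, and scaled by control-derived factors. Each value is given as log10(CPM+1).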
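Further: IS621 bridge recombinase in Escherichia coli cells against a fixed T5 target plasmid.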

| Sequence | recombinant UMI read abundance (log10) |
| --- | --- |
| CACCCCTCATGGACCGGTTTTCCCGGTAATCCGTATTTGCC (site CACCCCTCTGG) | 2.71 |
| CACCCCTCATGGACCGGTTTTCCCGGTAATCCGTATTTGCC (site CACGCCTCTGG) | 0 |
| CACCCCTCATGGACCGGTTTTCCCGGTAATCCGTATTTGCC (site CACTCCTCTGG) | 1.21 |
| CACCGATCATGGACCGGTTTTCCCGGTAATCCGTATTTGGC (site CACCGATCTGC) | 3.71 |
| CACCGCCCATGGACCGGTTTTCCCGGTAATCCGTATTTGTT (site CACAGCCCTAA) | 0.00423 |
| CACCGCCCATGGACCGGTTTTCCCGGTAATCCGTATTTGTT (site CACCGCCCTAA) | 0.033 |
| CACCGCCCATGGACCGGTTTTCCCGGTAATCCGTATTTGTT (site CACGGCCCTAA) | 0.0192 |
| CACCGCCCATGGACCGGTTTTCCCGGTAATCCGTATTTGTT (site CACTGCCCTAA) | 0.0163 |
| CACCGCGCATGGACCGGTTTTCCCGGTAATCCGTATTTGTC (site CACCGCGCTGA) | 2.33 |
| CACCGTACATGGACCGGTTTTCCCGGTAATCCGTATTTGAT (site CACCGTACTAT) | 1.95 |
| CACCGTACATGGACCGGTTTTCCCGGTAATCCGTATTTGCT (site CACCGTACTAG) | 2.18 |
| CACCGTACATGGACCGGTTTTCCCGGTAATCCGTATTTGCT (site CCCCGTACTAG) | 0.363 |
| CACCGTACATGGACCGGTTTTCCCGGTAATCCGTATTTGCT (site CGCCGTACTAG) | 0.614 |
| CACCGTACATGGACCGGTTTTCCCGGTAATCCGTATTTGCT (site CTCCGTACTAG) | 0.912 |
| CACCTGGCATGGACCGGTTTTCCCGGTAATCCGTATTTGGA (site CACATGGCTTC) | 0.0162 |
| CACCTGGCATGGACCGGTTTTCCCGGTAATCCGTATTTGGA (site CACCTGGCTTC) | 0.595 |
| CACCTGGCATGGACCGGTTTTCCCGGTAATCCGTATTTGGA (site CACGTGGCTTC) | 0.0355 |
| CACCTGGCATGGACCGGTTTTCCCGGTAATCCGTATTTGGA (site CACTTGGCTTC) | 0.0384 |
| CACGCCTCATGGACCGGTTTTCCCGGTAATCCGTATTTGAA (site CACGCCTCTTT) | 2.67 |
| CACGCCTCATGGACCGGTTTTCCCGGTAATCCGTATTTGGC (site CACGCCTCTGC) | 2.52 |
| CACGGCCCATGGACCGGTTTTCCCGGTAATCCGTATTTGTC (site CACGGCCCTAA) | 0.214 |
| CACGGCCCATGGACCGGTTTTCCCGGTAATCCGTATTTGTC (site CACGGCCCTCA) | 0.166 |
| CACGGCCCATGGACCGGTTTTCCCGGTAATCCGTATTTGTC (site CACGGCCCTGA) | 1.59 |
| CACGGCCCATGGACCGGTTTTCCCGGTAATCCGTATTTGTC (site CACGGCCCTTA) | 0.469 |
| CACGGCTCATGGACCGGTTTTCCCGGTAATCCGTATTTGCC (site CACGGCTCTGG) | 3.3 |

| Sequence | recombinant UMI read abundance (log10) |
| --- | --- |
| CACTACACATGGACCGGTTTTCCCGGTAATCCGTATTTGCT (site CACTACACTAG) | 2.44 |
| CACTACACATGGACCGGTTTTCCCGGTAATCCGTATTTGCT (site CCCTACACTAG) | 1.16 |
| CACTACACATGGACCGGTTTTCCCGGTAATCCGTATTTGCT (site CGCTACACTAG) | 0.729 |
| CACTACACATGGACCGGTTTTCCCGGTAATCCGTATTTGCT (site CTCTACACTAG) | 1.79 |
| CACTCCCCATGGACCGGTTTTCCCGGTAATCCGTATTTGCC (site CACTCCACTGG) | 0 |
| CACTCCCCATGGACCGGTTTTCCCGGTAATCCGTATTTGCC (site CACTCCCCTGG) | 1.23 |
| CACTCCCCATGGACCGGTTTTCCCGGTAATCCGTATTTGCC (site CACTCCGCTGG) | 0 |
| CACTCCCCATGGACCGGTTTTCCCGGTAATCCGTATTTGCC (site CACTCCTCTGG) | 1.43 |
| CACTCCTCATGGACCGGTTTTCCCGGTAATCCGTATTTGCT (site CACTCCTCTAG) | 3.09 |
| CACTCCTCATGGACCGGTTTTCCCGGTAATCCGTATTTGCT (site CACTCCTCTCG) | 0.583 |
| CACTCCTCATGGACCGGTTTTCCCGGTAATCCGTATTTGCT (site CACTCCTCTGG) | 2.08 |
| CACTCCTCATGGACCGGTTTTCCCGGTAATCCGTATTTGCT (site CACTCCTCTTG) | 1.69 |
| CACTCCTCATGGACCGGTTTTCCCGGTAATCCGTATTTGTC (site CACTCCTCTGA) | 3.16 |
| CACTCCTCATGGACCGGTTTTCCCGGTAATCCGTATTTGTC (site CACTCCTCTGC) | 1.7 |
| CACTCCTCATGGACCGGTTTTCCCGGTAATCCGTATTTGTC (site CACTCCTCTGG) | 2.55 |
| CACTCCTCATGGACCGGTTTTCCCGGTAATCCGTATTTGTC (site CACTCCTCTGT) | 3.06 |
| CACTCGGCATGGACCGGTTTTCCCGGTAATCCGTATTTGAT (site CACTCGGCTAT) | 2.18 |
| CACTCGGCATGGACCGGTTTTCCCGGTAATCCGTATTTGTA (site CACTCGGCTTA) | 2.18 |
| CACTCTACATGGACCGGTTTTCCCGGTAATCCGTATTTGTA (site CACTCTACTTA) | 0.722 |
| CACTGATCATGGACCGGTTTTCCCGGTAATCCGTATTTGCT (site CACTGATCTAG) | 2.61 |
| CACTGATCATGGACCGGTTTTCCCGGTAATCCGTATTTGGG (site CACTGATCTCC) | 1.27 |
| CACTTCGCATGGACCGGTTTTCCCGGTAATCCGTATTTGGA (site CACTTAGCTTC) | 0.0127 |
| CACTTCGCATGGACCGGTTTTCCCGGTAATCCGTATTTGGA (site CACTTCGCTTC) | 0.493 |
| CACTTCGCATGGACCGGTTTTCCCGGTAATCCGTATTTGGA (site CACTTGGCTTC) | 0 |
| CACTTCGCATGGACCGGTTTTCCCGGTAATCCGTATTTGGA (site CACTTTGCTTC) | 0.00357 |

| Sequence | recombinant UMI read abundance (log10) |
| --- | --- |
| CACTTGGCATGGACCGGTTTTCCCGGTAATCCGTATTTGCA (site CACTTGGCTTA) | 0.00954 |
| CACTTGGCATGGACCGGTTTTCCCGGTAATCCGTATTTGCA (site CACTTGGCTTC) | 0.0203 |
| CACTTGGCATGGACCGGTTTTCCCGGTAATCCGTATTTGCA (site CACTTGGCTTG) | 0.498 |
| CACTTGGCATGGACCGGTTTTCCCGGTAATCCGTATTTGCA (site CACTTGGCTTT) | 0.0216 |
| CACTTGGCATGGACCGGTTTTCCCGGTAATCCGTATTTGCT (site CACTTGGCTAG) | 0 |
| CAGAACCCATGGACCGGTTTTCCCGGTAATCCGTATTTGAG (site CAGAACCCTCT) | 1.35 |
| CAGAAGACATGGACCGGTTTTCCCGGTAATCCGTATTTGCA (site AGGAAGACTTG) | 0.401 |
| CAGAAGACATGGACCGGTTTTCCCGGTAATCCGTATTTGCA (site CAGAAGACTTG) | 3.09 |
| CAGACGACATGGACCGGTTTTCCCGGTAATCCGTATTTGGG (site CAGACGACTCC) | 0.00735 |
| CAGACGACATGGACCGGTTTTCCCGGTAATCCGTATTTGGG (site CAGCCGACTCC) | 0.0345 |
| CAGACGACATGGACCGGTTTTCCCGGTAATCCGTATTTGGG (site CAGGCGACTCC) | 0.0123 |
| CAGACGACATGGACCGGTTTTCCCGGTAATCCGTATTTGGG (site CAGTCGACTCC) | 0.0666 |
| CAGATCCCATGGACCGGTTTTCCCGGTAATCCGTATTTGGT (site CAGATCCCTAC) | 1.42 |
| CAGCACGCATGGACCGGTTTTCCCGGTAATCCGTATTTGAT (site CAGCACGCTAT) | 2.39 |
| CAGCCGACATGGACCGGTTTTCCCGGTAATCCGTATTTGGG (site CAGACGACTCC) | 0.0262 |
| CAGCCGACATGGACCGGTTTTCCCGGTAATCCGTATTTGGG (site CAGCCGACTCC) | 0.188 |
| CAGCCGACATGGACCGGTTTTCCCGGTAATCCGTATTTGGG (site CAGGCGACTCC) | 0.0119 |
| CAGCCGACATGGACCGGTTTTCCCGGTAATCCGTATTTGGG (site CAGTCGACTCC) | 0.00469 |
| CAGCGAACATGGACCGGTTTTCCCGGTAATCCGTATTTGGG (site CAGCGAACTCC) | 0.888 |
| CAGCTACCATGGACCGGTTTTCCCGGTAATCCGTATTTGCT (site CAGCTACCTAG) | 0 |
| CAGCTACCATGGACCGGTTTTCCCGGTAATCCGTATTTGCT (site CCGCTACCTAG) | 0 |
| CAGCTACCATGGACCGGTTTTCCCGGTAATCCGTATTTGCT (site CGGCTACCTAG) | 0 |
| CAGCTACCATGGACCGGTTTTCCCGGTAATCCGTATTTGCT (site CTGCTACCTAG) | 0 |
| CAGGAACCATGGACCGGTTTTCCCGGTAATCCGTATTTGAT (site CAGGAACCTAT) | 0 |
| CAGGAACCATGGACCGGTTTTCCCGGTAATCCGTATTTGAT (site CCGGAACCTAT) | 0 |
